# Values of other authors as cited in US20050159809A1, “Implantable medical devices for treating or preventing restenosis” (Medtronic Vascular, Inc., priority 2004, published 2005).
# Test system: balloon-injury induced neointimal thickening and macrophage accumulation
# Settings: four weeks after balloon de-endothelialization
compound,measurement,setting,value
"CC(C)(Sc1cc(C(C)(C)C)c(O)c(C(C)(C)C)c1)Sc1cc(C(C)(C)C)c(O)c(C(C)(C)C)c1 [probucol, {[bis(3,5-di-tert-butyl-4-hydroxyphenyl)thio]propane}]",absolute neointima thickness,"high cholesterol rabbit food plus 1% probucol vs cholesterol-only diet, P<0.05",reduced
same,macrophage content in the neointima,"high cholesterol rabbit food plus 1% probucol vs high cholesterol feed without probucol, P<0.001",lower
